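Briefly, cells in 96-well plates were exposed to five compound concentrations for 48 h, and endpoints were estimated by linear interpolation. GI50 is the concentration that inhibits growth by half.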 Active and inactive are the calls of the source. No stated cut-off is given here; in the data, active = GI50 up to about 1.1 µM and inactive = higher.
Columns and labels:
Experiment in all cases: NCI anticancer screen, dose series, 48 h
SF-268 = test system: SF-268
A498 = test system: A498
UO-31 = test system: UO-31
COLO 205 = test system: COLO 205
NCI-H460 = test system: NCI-H460
SK-MEL-28 = test system: SK-MEL-28
HOP-62 = test system: HOP-62
SF-295 = test system: SF-295
M14 = test system: M14
MOLT-4 = test system: MOLT-4
UACC-62 = test system: UACC-62
HOP-92 = test system: HOP-92
SK-MEL-2 = test system: SK-MEL-2
LOX IMVI = test system: LOX IMVI
SF-539 = test system: SF-539
SNB-75 = test system: SNB-75
SK-MEL-5 = test system: SK-MEL-5
RPMI-8226 = test system: RPMI-8226
PC-3 = test system: PC-3
T47D = test system: T47D

Structure (SMILES) | GI50 (SF-268) | GI50 (A498) | GI50 (UO-31) | GI50 (COLO 205) | GI50 (NCI-H460) | GI50 (SK-MEL-28) | GI50 (HOP-62) | GI50 (SF-295) | GI50 (M14) | GI50 (MOLT-4) | GI50 (UACC-62) | GI50 (HOP-92) | GI50 (SK-MEL-2) | GI50 (LOX IMVI) | GI50 (SF-539) | GI50 (SNB-75) | GI50 (SK-MEL-5) | GI50 (RPMI-8226) | GI50 (PC-3) | GI50 (T47D)
Cc1cnoc1/N=C1\C=C(Nc2oncc2C)C(=O)c2ccccc21 | > 100 µM (inactive) | > 100 µM (inactive) | 62.1 µM (inactive) | > 100 µM (inactive) | > 100 µM (inactive) | > 100 µM (inactive) | > 100 µM (inactive) | > 100 µM (inactive) | > 100 µM (inactive) | > 100 µM (inactive) | 48.3 µM (inactive) | > 100 µM (inactive) | > 100 µM (inactive) | 23.3 µM (inactive) | > 100 µM (inactive) | > 100 µM (inactive) | 33.3 µM (inactive) | > 100 µM (inactive) |  | 
CC(=O)Nc1ccc(NNc2cc(=O)n(C)c(=O)[nH]2)cc1 |  | 23.2 µM (inactive) | 17.2 µM (inactive) | 11.8 µM (inactive) | 17.1 µM (inactive) | 11.9 µM (inactive) | 15.1 µM (inactive) | 15.8 µM (inactive) | 8.89 µM (inactive) | 34.8 µM (inactive) |  | 2 µM (inactive) |  | 2.56 µM (inactive) | 9.73 µM (inactive) |  | 16.7 µM (inactive) | 2.84 µM (inactive) | 4 µM (inactive) | 
C=C(C)CNC(=S)N(N)c1ccc2ccccc2c1 | 78 µM (inactive) |  | 61.1 µM (inactive) | > 100 µM (inactive) | > 100 µM (inactive) | > 100 µM (inactive) | > 100 µM (inactive) | 94.2 µM (inactive) | > 100 µM (inactive) | > 100 µM (inactive) | 23.9 µM (inactive) | > 100 µM (inactive) |  | > 100 µM (inactive) | > 100 µM (inactive) | > 100 µM (inactive) | > 100 µM (inactive) | > 100 µM (inactive) | 61.1 µM (inactive) | 24.2 µM (inactive)
CCC/C=C\C=C\C1(NS(=O)(=O)c2ccc(C)cc2)CCC(C(C)(C)C)CC1 (stereo not given) | 17.4 µM (inactive) | 21.2 µM (inactive) | 23.7 µM (inactive) | 14.5 µM (inactive) | 14.6 µM (inactive) |  | 20.7 µM (inactive) | 19.9 µM (inactive) | 13.3 µM (inactive) | 7.1 µM (inactive) | 21.3 µM (inactive) | 22.9 µM (inactive) | 13.5 µM (inactive) |  | 35.7 µM (inactive) | 23.4 µM (inactive) | 16.7 µM (inactive) | 7.96 µM (inactive) |  | 
Clc1ccccc1C(n1cc(Br)cn1)n1cc(Br)cn1 | > 10 µM (inactive) | 17.1 µM (inactive) | 12.6 µM (inactive) |  | 14.7 µM (inactive) | 40.7 µM (inactive) | 25.5 µM (inactive) | 16.2 µM (inactive) | 16.3 µM (inactive) | 14.2 µM (inactive) | > 10 µM (inactive) | 7.48 µM (inactive) | 18.2 µM (inactive) | 17 µM (inactive) | > 10 µM (inactive) | 5.81 µM (inactive) | 11 µM (inactive) | 13.6 µM (inactive) |  | 
CCN(CC)c1ccc2cc(-c3csc(C)n3)c(=O)oc2c1 | 81.3 µM (inactive) |  | > 100 µM (inactive) | > 100 µM (inactive) | > 100 µM (inactive) | > 100 µM (inactive) | 30.6 µM (inactive) | 47 µM (inactive) | > 100 µM (inactive) | > 100 µM (inactive) | 52.8 µM (inactive) | 27.4 µM (inactive) | > 100 µM (inactive) | 67.3 µM (inactive) | 77.3 µM (inactive) | 0.0585 µM (active) | 37.9 µM (inactive) | > 100 µM (inactive) | 43.5 µM (inactive) | 2.14 µM (inactive)
COC(=O)C1=C(c2ccc3c(c2)OCO3)O[C@H](c2cc(OC)c(OC)c(OC)c2)[C@H]1COC(C)=O | 7.5 µM (inactive) | 0.352 µM (active) | 4.31 µM (inactive) | 0.984 µM (active) | 4.3 µM (inactive) | 12.2 µM (inactive) | 3.08 µM (inactive) | 0.282 µM (active) | 1.71 µM (inactive) | 3.03 µM (inactive) | 3.32 µM (inactive) | 2.67 µM (inactive) | 12.6 µM (inactive) | 8.91 µM (inactive) | 1.99 µM (inactive) | 4.06 µM (inactive) | 0.973 µM (active) | 11.3 µM (inactive) |  | 
COc1ccc(S(=O)(=O)N/N=C\c2cc([N+](=O)[O-])cc(I)c2O)c(OC)c1OC | 26.5 µM (inactive) | 29.8 µM (inactive) | 18.5 µM (inactive) | 21.4 µM (inactive) | 33 µM (inactive) | 24.5 µM (inactive) |  | 30.6 µM (inactive) | 28.4 µM (inactive) | 25.1 µM (inactive) | 21.9 µM (inactive) | 13.5 µM (inactive) | 21.4 µM (inactive) | 32.5 µM (inactive) |  | 24.7 µM (inactive) | 21.2 µM (inactive) | 26.5 µM (inactive) |  | 
O=C(NN1C(=O)c2ccccc2C1=O)c1ccccc1Nc1ccccc1C(=O)NN1C(=O)c2ccccc2C1=O | > 100 µM (inactive) |  | > 100 µM (inactive) | > 100 µM (inactive) | > 100 µM (inactive) | > 100 µM (inactive) | > 100 µM (inactive) | > 100 µM (inactive) | > 100 µM (inactive) | > 100 µM (inactive) | > 100 µM (inactive) | > 100 µM (inactive) | > 100 µM (inactive) | > 100 µM (inactive) | > 100 µM (inactive) | > 100 µM (inactive) | > 100 µM (inactive) | 49.2 µM (inactive) | > 100 µM (inactive) | 
COc1cc(/C=C2\N=C(c3ccccc3)N(c3nc4cc(C)c(C)cc4s3)C2=O)ccc1O | 44.8 µM (inactive) |  | 40.3 µM (inactive) | 40.1 µM (inactive) | 27.4 µM (inactive) | 71.3 µM (inactive) | 74.1 µM (inactive) | 66.8 µM (inactive) | 47.4 µM (inactive) | 2.75 µM (inactive) | 26.6 µM (inactive) | 21.9 µM (inactive) | 26.3 µM (inactive) | 30.5 µM (inactive) | 29.4 µM (inactive) | 24.9 µM (inactive) | 31.3 µM (inactive) | 20.8 µM (inactive) | 30.3 µM (inactive) | 44.1 µM (inactive)
CC(=O)C1CC=C(C)CC1 (stereo not given) | > 100 µM (inactive) | > 100 µM (inactive) | > 100 µM (inactive) | > 100 µM (inactive) | > 100 µM (inactive) | > 100 µM (inactive) | > 100 µM (inactive) | > 100 µM (inactive) | > 100 µM (inactive) | > 100 µM (inactive) | > 100 µM (inactive) | > 100 µM (inactive) | > 100 µM (inactive) | > 100 µM (inactive) | > 100 µM (inactive) | > 100 µM (inactive) | > 100 µM (inactive) | > 100 µM (inactive) |  | 
O=C1O/C(=C(/Br)c2ccc(Cl)c(Cl)c2)c2ccccc21 | > 10 µM (inactive) |  | > 10 µM (inactive) | > 10 µM (inactive) | > 10 µM (inactive) | > 10 µM (inactive) | > 10 µM (inactive) | > 10 µM (inactive) | > 10 µM (inactive) | > 10 µM (inactive) | > 10 µM (inactive) | > 10 µM (inactive) | > 10 µM (inactive) | > 10 µM (inactive) | > 10 µM (inactive) | > 10 µM (inactive) | > 10 µM (inactive) | > 10 µM (inactive) | > 10 µM (inactive) | > 10 µM (inactive)
O=C(CBr)N1CCC2(CC1)SSC1(CCN(C(=O)CBr)CC1)S2 |  |  | 0.593 µM (active) | 0.368 µM (active) | 1.81 µM (inactive) | 2 µM (inactive) | 1.9 µM (inactive) | 1.94 µM (inactive) | 1.53 µM (inactive) | 0.159 µM (active) | 1.47 µM (inactive) | 2.1 µM (inactive) |  | 0.064 µM (active) | 1.68 µM (inactive) | 2.01 µM (inactive) |  | 0.356 µM (active) | 1.84 µM (inactive) | 
CCCCSN1C(=O)c2ccccc2C1=S | 48.9 µM (inactive) | > 100 µM (inactive) | 53.3 µM (inactive) | 62.4 µM (inactive) | > 100 µM (inactive) | > 100 µM (inactive) | > 100 µM (inactive) | 39.3 µM (inactive) | 41.6 µM (inactive) | 18.5 µM (inactive) | 55 µM (inactive) | 41.1 µM (inactive) | 34.4 µM (inactive) | 54.2 µM (inactive) | 33.3 µM (inactive) | 72.4 µM (inactive) | 60.5 µM (inactive) | 21 µM (inactive) |  | 
O=C1C=CC(=O)C2C1Cc1ccccc1C2c1ccccc1 (stereo not given) | 53.1 µM (inactive) | 22.4 µM (inactive) | 47.1 µM (inactive) | 19.5 µM (inactive) | 29.9 µM (inactive) | 97.1 µM (inactive) | > 100 µM (inactive) | > 100 µM (inactive) | 42.8 µM (inactive) | 32.7 µM (inactive) | > 100 µM (inactive) | 32 µM (inactive) | 27.8 µM (inactive) | 41.6 µM (inactive) | 30.5 µM (inactive) | 42.7 µM (inactive) | 64 µM (inactive) | 22.3 µM (inactive) |  | 
Cc1cc(C(=C2C=CC(=[N+](C)C)C=C2)c2ccc([N+](C)(C)C)cc2)ccc1N(C)C | 11.6 µM (inactive) | 18.5 µM (inactive) | 26.3 µM (inactive) | 10.1 µM (inactive) | 3.98 µM (inactive) | 11.3 µM (inactive) | 25.2 µM (inactive) | 5.2 µM (inactive) | 10.4 µM (inactive) | 4.28 µM (inactive) | 5.55 µM (inactive) | 10.9 µM (inactive) | 15.2 µM (inactive) | 4.79 µM (inactive) | 10.8 µM (inactive) | 2.65 µM (inactive) | 11.8 µM (inactive) | 2.04 µM (inactive) |  | 

— ChEMBL document CHEMBL1201862, “PubChem BioAssay data set” (2004)
